{"source": "patent US20230146455A1", "about": "“TREATMENT OF INFLAMMATORY DISEASES WITH PEPTIDES AND PHARMACEUTICAL COMPOSITIONS” (Yuyu Pharma, Inc., priority 2020, published 2023)", "type_in_all_cases": "cell-based, human", "key": {"CCL3/MIP-1 alpha": {"test_system": "CCL3/MIP-1 alpha", "test": "Example 8 main study Luminex, LPS hPBMCs: CCL3/MIP-1 alpha", "procedure": "(§1) Human PBMCs were pretreated with YY-101, YDE-011, YDE-043 or reference compound; Xiidra® at various concentration (ranging from […] to 500 nM) for 2 h before stimulation. An equal volume of 0.5% DMSO was used as a vehicle control. Then, the cells were treated with LPS at 5 ug/ml, which was selected based on the pilot study. The supernatants from treated cells were harvested at 24 h and placed in a 96 well for Luminex cytokine & chemokine profiling using a Luminex 200 multiplex assay (Luminex; R&D system, USA).\n(§2) The main study arm with triplicate wells per group in a 24-well plate: • 1. Blank • 2. PBMC: 0.5% DMSO • 3. PBMC+LPS (5 ug/ml) • 4. PBMC+YY-101 500 nM • 5. PBMC+YY-101 50 nM • 6. PBMC+YY-101 5 nM • 7. PBMC+YY-101 0.5 nM • 8. PBMC+LPS (5 ug/ml)+Xiidra® 500 nM • 9. PBMC+LPS (5 ug/ml)+Xiidra® 50 nM • 10. PBMC+LPS (5 ug/ml)+Xiidra® 5 nM • 11. PBMC+LPS (5 ug/ml)+Xiidra® 0.5 nM • 12. PBMC+LPS (5 ug/ml)+Xiidra® 0.05 nM • 13. PBMC+LPS (5 ug/ml)+Xiidra® 0.005 nM • 14. PBMC+LPS (5 ug/ml)+YY-101 500 nM • 15. PBMC+LPS (5 ug/ml)+YY-101 50 nM • 16. PBMC+LPS (5 ug/ml)+YY-101 5 nM • 17. PBMC+LPS (5 ug/ml)+YY-101 0.5 nM • 18. PBMC+LPS (5 ug/ml)+YY-101 0.05 nM • 19. PBMC+LPS (5 ug/ml)+YY-101 0.005 nM • 20. PBMC+LPS (5 ug/ml)+YDE-011 500 nM • 21. PBMC+LPS (5 ug/ml)+YDE-011 50 nM • 22. PBMC+LPS (5 ug/ml)+YDE-011 5 nM • 23. PBMC+LPS (5 ug/ml)+YDE-011 0.5 nM • 24. PBMC+LPS (5 ug/ml)+YDE-011 0.05 nM • 25. PBMC+LPS (5 ug/ml)+YDE-011 0.005 nM • 26. PBMC+LPS (5 ug/ml)+YDE-043 500 nM • 27. PBMC+LPS (5 ug/ml)+YDE-043 50 nM • 28. PBMC+LPS (5 ug/ml)+YDE-043 5 nM • 29. PBMC+LPS (5 ug/ml)+YDE-043 0.5 nM • 30. PBMC+LPS (5 ug/ml)+YDE-043 0.05 nM • 31. PBMC+LPS (5 ug/ml)+YDE-043 0.005 nM\n(§3) Multiplex assay was used to measure 30 cytokines and chemokines. The 1:200 diluted cell supernatant and serial dilution of the standard were dispensed into a 96 well plate at 50 ul/well. Then, the pre-mixed cocktail of antibody-coated magnetic beads was dispensed at 50 ul/well and incubated at room temperature for 2 h in a horizontal orbital microplate shaker at 800±500 rpm. The beads were washed using a magnetic device to prevent loss. The biotin-antibody was dispensed in 50 ul of each well and incubated at room temperature for 1 h in a shaker at 800±500 rpm. After washing, streptavidin-PE was added at 50 ul/well and incubated at room temperature for 30 min in a shaker under the same conditions. Finally, after washing, wash buffer (100 ul/well) was added to the plate and incubated in a shaker for 2 min. The Luminex™ 200 setting were set according to the manufacturer's protocol. The data was calculated with a standard five-parameter logistic nonlinear regression analysis of the data (xPonent software 4.2, USA). Results were presented as concentration (ng/ml or pg/ml)."}, "MMP-3": {"test_system": "MMP-3", "test": "Example 8 main study Luminex, LPS hPBMCs: MMP-3", "settings": "for MMP-3 Concentration: single replicates", "procedure": "as §1, §2, §3"}, "IL-10": {"test_system": "IL-10", "test": "Example 8 main study Luminex, LPS hPBMCs: IL-10", "settings": "for IL-10 Concentration: individual replicates; for IL-10 Concentration (pg/ml), Mean: mean of replicates", "procedure": "as §1, §2, §3"}, "[1]": {"settings": "at as low as 5 μM, LPS 5 ug/mL 24 hrs"}, "[2]": {"settings": "PBMC + LPS(5 ug/ml) + YY101 0.005 nM"}, "[3]": {"settings": "PBMC + LPS(5 ug/ml) + YY101 0.05 nM"}, "[4]": {"settings": "PBMC + LPS(5 ug/ml) + YY101 0.5 nM"}, "[5]": {"settings": "PBMC + LPS(5 ug/ml) + YY101 5 nM"}, "[6]": {"settings": "PBMC + LPS(5 ug/ml) + YY101 50 nM"}, "[7]": {"settings": "PBMC + LPS(5 ug/ml) + YY101 500 nM"}, "[8]": {"settings": "PBMC + LPS(5 ug/ml) + test article 0.005 nM"}, "[9]": {"settings": "PBMC + LPS(5 ug/ml) + test article 0.05 nM"}, "[10]": {"settings": "PBMC + LPS(5 ug/ml) + test article 0.5 nM"}, "[11]": {"settings": "PBMC + LPS(5 ug/ml) + test article 5 nM"}, "[12]": {"settings": "PBMC + LPS(5 ug/ml) + test article 50 nM"}, "[13]": {"settings": "PBMC + LPS(5 ug/ml) + test article 500 nM"}}, "note": "Where “and” joins values, the source holds several entries; their conditions need not be identical. Identical values can stand only once. Where a SMILES comes first, the peptide text is derived from it. [ ]: non-standard residue; d: D form. Hyp = O=C(O)[C@@H]1C[C@@H](O)CN1", "data": [{"smiles": "CC(C)C[C@H](NC(=O)CNC(=O)[C@H](CC(=O)O)NC(=O)[C@H](CCC(N)=O)NC(=O)CNC(=O)[C@@H]1C[C@@H](O)CN1)C(=O)N[C@@H](C)C(=O)NCC(=O)N1CCC[C@H]1C(=O)N[C@@H](CCCCN)C(=O)O", "note": "[YY-101] (H-[Hyp]GQDGLAGPK-OH; N-terminus and C-terminus assumed)", "values": [{"measurement": "CCL3/MIP-1 alpha MFI", "setting": "CCL3/MIP-1 alpha; PBMC + test article 500 nM, no LPS, single replicates", "value": 17.0}, {"measurement": "LPS-induced CCL-3 (in words)", "setting": "CCL3/MIP-1 alpha; [1]", "value": "significantly reduced"}, {"measurement": "MMP-3 Concentration, Mean", "setting": "MMP-3; [2]", "value": 7549.8, "unit": "pg/mL"}, {"measurement": "MMP-3 Concentration", "setting": "MMP-3; [2]", "value": "7549.7 pg/mL and 7474.3 pg/mL and 7625.3 pg/mL"}, {"measurement": "MMP-3 Concentration, Mean", "setting": "MMP-3; [3]", "value": 8082.3, "unit": "pg/mL"}, {"measurement": "MMP-3 Concentration", "setting": "MMP-3; [3]", "value": "7776.9 pg/mL and 8541.1 pg/mL and 7928.9 pg/mL"}, {"measurement": "MMP-3 Concentration, Mean", "setting": "MMP-3; [4]", "value": 7751.6, "unit": "pg/mL"}, {"measurement": "MMP-3 Concentration", "setting": "MMP-3; [4]", "value": "7701.1 pg/ml and 7776.9 pg/ml (2×)"}, {"measurement": "MMP-3 Concentration, Mean", "setting": "MMP-3; [5]", "value": 7905.9, "unit": "pg/mL"}, {"measurement": "MMP-3 Concentration", "setting": "MMP-3; [5]", "value": "7549.7 pg/ml (2×) and 8618.2 pg/ml"}, {"measurement": "MMP-3 Concentration, Mean", "setting": "MMP-3; [6]", "value": 7777.4, "unit": "pg/mL"}, {"measurement": "MMP-3 Concentration", "setting": "MMP-3; [6]", "value": "7549.7 pg/mL and 7701.1 pg/mL and 8081.3 pg/mL"}, {"measurement": "MMP-3 Concentration, Mean", "setting": "MMP-3; [7]", "value": 7752.0, "unit": "pg/mL"}, {"measurement": "MMP-3 Concentration", "setting": "MMP-3; [7]", "value": "8043.1 pg/mL and 7663.2 pg/mL and 7549.7 pg/mL"}, {"measurement": "MMP-3 Concentration, Mean", "setting": "MMP-3; PBMC + YY101 0.5 nM, no LPS", "value": 6246.3, "unit": "pg/mL"}, {"measurement": "MMP-3 Concentration", "setting": "MMP-3; PBMC + YY101 0.5 nM, no LPS", "value": "6062.8 pg/mL and 6429.9 pg/mL"}, {"measurement": "MMP-3 Concentration, Mean", "setting": "MMP-3; PBMC + YY101 5 nM, no LPS", "value": 6246.0, "unit": "pg/mL"}, {"measurement": "MMP-3 Concentration", "setting": "MMP-3; PBMC + YY101 5 nM, no LPS", "value": "6172.6 pg/mL and 6319.4 pg/mL"}, {"measurement": "MMP-3 Concentration, Mean", "setting": "MMP-3; PBMC + YY101 0.05 uM, no LPS", "value": 6374.8, "unit": "pg/mL"}, {"measurement": "MMP-3 Concentration", "setting": "MMP-3; PBMC + YY101 0.05 uM, no LPS", "value": "6503.7 pg/mL and 6245.9 pg/mL"}, {"measurement": "MMP-3 Concentration, Mean", "setting": "MMP-3; PBMC + YY101 50 nM, no LPS", "value": 6118.0, "unit": "pg/mL"}, {"measurement": "MMP-3 Concentration", "setting": "MMP-3; PBMC + YY101 50 nM, no LPS", "value": "6282.7 pg/mL and 5953.3 pg/mL"}, {"measurement": "MMP-3 Concentration, Mean", "setting": "MMP-3; PBMC + YY101 500 nM, no LPS", "value": 6356.3, "unit": "pg/mL"}, {"measurement": "MMP-3 Concentration", "setting": "MMP-3; PBMC + YY101 500 nM, no LPS", "value": "6282.7 pg/mL and 6429.9 pg/mL"}, {"measurement": "LPS-induced MMP3 (in words)", "setting": "MMP-3; [1]", "value": "significantly reduced"}, {"measurement": "IL-10 Concentration", "setting": "IL-10; [8]", "value": "832.3 pg/mL and 677.1 pg/mL and 780.9 pg/mL"}, {"measurement": "IL-10 Concentration (pg/ml), Mean", "setting": "IL-10; [8]", "value": 763.4, "unit": "pg/mL"}, {"measurement": "IL-10 Concentration", "setting": "IL-10; [9]", "value": "806.6 pg/mL and 1121.8 pg/mL and 883.3 pg/mL"}, {"measurement": "IL-10 Concentration (pg/ml), Mean", "setting": "IL-10; [9]", "value": 937.2, "unit": "pg/mL"}, {"measurement": "IL-10 Concentration", "setting": "IL-10; [10]", "value": "870.5 pg/mL and 703.2 pg/mL and 716.2 pg/mL"}, {"measurement": "IL-10 Concentration (pg/ml), Mean", "setting": "IL-10; [10]", "value": 763.3, "unit": "pg/mL"}, {"measurement": "IL-10 Concentration", "setting": "IL-10; [11]", "value": "857.8 pg/mL and 934.0 pg/mL and 1009.5 pg/mL"}, {"measurement": "IL-10 Concentration (pg/ml), Mean", "setting": "IL-10; [11]", "value": 933.8, "unit": "pg/mL"}, {"measurement": "IL-10 Concentration", "setting": "IL-10; [12]", "value": "651.0 pg/mL and 845.0 pg/mL and 793.8 pg/mL"}, {"measurement": "IL-10 Concentration (pg/ml), Mean", "setting": "IL-10; [12]", "value": 763.3, "unit": "pg/mL"}, {"measurement": "IL-10 Concentration", "setting": "IL-10; [13]", "value": "832.3 pg/mL and 883.3 pg/mL and 755.1 pg/mL"}, {"measurement": "IL-10 Concentration (pg/ml), Mean", "setting": "IL-10; [13]", "value": 823.5, "unit": "pg/mL"}, {"measurement": "IL-10 Concentration", "setting": "IL-10; PBMC + test article 0.5 nM, no LPS, dilution 200", "value": "<2.59", "unit": "pg/mL"}, {"measurement": "IL-10 Concentration", "setting": "IL-10; PBMC + test article 5 nM, no LPS, dilution 200", "value": "<2.59", "unit": "pg/mL"}, {"measurement": "IL-10 Concentration", "setting": "IL-10; PBMC + test article 0.05 uM, no LPS, dilution 200", "value": "<2.59", "unit": "pg/mL"}, {"measurement": "IL-10 Concentration", "setting": "IL-10; PBMC + test article 50 nM, no LPS, dilution 200", "value": "<2.59", "unit": "pg/mL"}, {"measurement": "IL-10 Concentration", "setting": "IL-10; PBMC + test article 500 nM, no LPS, dilution 200", "value": "<2.59", "unit": "pg/mL"}, {"measurement": "LPS-induced IL-10 (in words)", "setting": "IL-10; [1]", "value": "significantly reduced"}]}]}
